Results from the NIST ThermoML archive (doi:10.1016/j.jct.2014.07.022).

Assay: xn = mol fraction of the nth substance listed
Conditions: Gas, Spherical resonator

[C-]#[O+] [carbon monoxide] + N#N
Conditions	speed of sound [m/s]
273.04 K, 5000 kPa, x1 = 0.04999	345.57
273.04 K, 7995 kPa, x1 = 0.04999	354.43
273.05 K, 99 kPa, x1 = 0.04999	336.94
273.05 K, 995 kPa, x1 = 0.04999	337.99
273.05 K, 2997 kPa, x1 = 0.04999	341.18
273.05 K, 3989 kPa, x1 = 0.04999	343.2
273.05 K, 5997 kPa, x1 = 0.04999	348.21
273.05 K, 6998 kPa, x1 = 0.04999	351.18
273.11 K, 1992 kPa, x1 = 0.04999	339.44
273.16 K, 996 kPa, x1 = 0.1002	338.03
273.17 K, 1993 kPa, x1 = 0.1002	339.46
273.17 K, 2993 kPa, x1 = 0.1002	341.21
273.17 K, 4989 kPa, x1 = 0.1002	345.57
273.17 K, 6000 kPa, x1 = 0.1002	348.25
273.18 K, 3997 kPa, x1 = 0.1002	343.25
273.18 K, 6994 kPa, x1 = 0.1002	351.2
273.18 K, 8019 kPa, x1 = 0.1002	354.55
273.18 K, 8970 kPa, x1 = 0.1002	357.95
273.2 K, 9955 kPa, x1 = 0.1002	361.78
273.24 K, 9010 kPa, x1 = 0.04999	358.19
273.24 K, 9993 kPa, x1 = 0.04999	361.99
324.94 K, 117 kPa, x1 = 0.1002	367.62
324.94 K, 5998 kPa, x1 = 0.1002	381.69
324.94 K, 10006 kPa, x1 = 0.1002	394.85
324.95 K, 1001 kPa, x1 = 0.1002	369.33
324.95 K, 3002 kPa, x1 = 0.1002	373.73
324.95 K, 3998 kPa, x1 = 0.1002	376.19
324.95 K, 8963 kPa, x1 = 0.1002	391.17
324.96 K, 1989 kPa, x1 = 0.1002	371.42
324.96 K, 5002 kPa, x1 = 0.1002	378.87
324.96 K, 6999 kPa, x1 = 0.1002	384.73
324.96 K, 7996 kPa, x1 = 0.1002	387.92
324.99 K, 8000 kPa, x1 = 0.04999	387.94
325 K, 1002 kPa, x1 = 0.04999	369.31
325 K, 1991 kPa, x1 = 0.04999	371.4
325.01 K, 99 kPa, x1 = 0.04999	367.57
325.01 K, 3003 kPa, x1 = 0.04999	373.73
325.01 K, 4998 kPa, x1 = 0.04999	378.87
325.03 K, 3999 kPa, x1 = 0.04999	376.21
325.03 K, 5995 kPa, x1 = 0.04999	381.72
325.05 K, 9002 kPa, x1 = 0.04999	391.36
325.13 K, 10001 kPa, x1 = 0.04999	394.94
325.23 K, 7007 kPa, x1 = 0.04999	384.9
